Here are results for 18 compounds from ChEMBL document CHEMBL3244280, “Thiazolinone analogues of indolmycin with antiviral and antibacterial activity” (J Med Chem, 1978).

One may read the MIC as the lowest concentration that inhibits growth of the organism. The low end stands for inhibition by little substance, the high end for a need for much substance.

The subject of series [1] is Enterococcus faecalis. Briefly: Antibacterial activity against Streptococcus faecalis I. Type of series: functional.
The subject of series [2] is Coxsackievirus B1. Briefly: Antiviral activity against Coxsackievirus B1 infected in human HeLa cells at 1 mg/ml by agar diffusion assay. Type of series: functional. To be noted: Enterovirus B; read-out: IZ. In general terms: In agar diffusion tests the substance spreads into inoculated agar from a disc or well.
Series [3] has as its system Staphylococcus aureus. Briefly: Antibacterial activity against Staphylococcus aureus Russel. It counts as functional.
For series [4], the system named is Bacillus subtilis. Nature of the series: Antibacterial activity against Bacillus subtilis. Type of series: functional.
Series [5] relates to Human alphaherpesvirus 1. Nature of the series: Antiviral activity against Herpes simplex virus 1 infected in chick embryo fibroblasts by plaque reduction assay. Type of series: functional, organism-based.
Series [6] concerns Influenza A virus. Briefly: Antiviral activity against influenza A virus NWS/H0N1 infected in BHK cells at 1 mg/ml by agar diffusion assay. Type of series: functional. To be noted: read-out: IZ.
Series [7] deals with Influenza A virus. Nature of the series: Antiviral activity against influenza A virus NWS/H0N1 infected in BHK cells by agar diffusion assay. Type of series: functional.
Series [8] has as its system Streptococcus pyogenes. Briefly: Antibacterial activity against Streptococcus pyogenes CN10. Type of series: functional.
Series [9] concerns Staphylococcus aureus. Briefly: Antibacterial activity against Staphylococcus aureus 1517. It counts as functional.
The nature of series [10]: Cytotoxicity against BHK cells. To be noted: hamster. It counts as cell-based, Mesocricetus auratus.
Series [11] has as its system Staphylococcus aureus. Briefly: Antibacterial activity against Staphylococcus aureus Oxford up to 200 ug/ml. Type of series: functional, organism-based.
Series [12] has as its system HeLa. Briefly: Cytotoxicity against human HeLa cells up to 100 ug/ml. Type of series: cell-based.
In series [13] the test system is Influenza A virus. Nature of the series: Antiviral activity against influenza A virus NWS/H0N1 infected in BHK cells up to 100 ug/ml by agar diffusion assay. It counts as functional, organism-based.
Series [14] has as its system Coxsackievirus B1. Briefly: Antiviral activity against Coxsackievirus B1 infected in human HeLa cells up to 100 ug/ml by agar diffusion assay. Type of series: functional, organism-based.
In series [15] the test system is Streptococcus pyogenes. Briefly: Antibacterial activity against Streptococcus pyogenes CN10 up to 200 ug/ml. Type of series: functional, organism-based.
Series [16] concerns Staphylococcus aureus. Nature of the series: Antibacterial activity against Staphylococcus aureus Russel up to 200 ug/ml. Type of series: functional, organism-based.
In series [17] the test system is Staphylococcus aureus. Nature of the series: Antibacterial activity against Staphylococcus aureus 1517 up to 200 ug/ml. Type of series: functional, organism-based.
A short description of series [18]: Cytotoxicity against BHK cells up to 100 ug/ml by carbol fuschin assay. It counts as cell-based, Mesocricetus auratus. The conditions noted are these: hamster.
The test system of series [19] is Enterococcus faecalis. Briefly: Antibacterial activity against Streptococcus faecalis I up to 200 ug/ml. It counts as functional, organism-based.
Series [20] deals with Bacillus subtilis. Briefly: Antibacterial activity against Bacillus subtilis up to 200 ug/ml. It counts as functional, organism-based.
The test system of series [21] is Staphylococcus aureus. Briefly: Antibacterial activity against Staphylococcus aureus Oxford. Type of series: functional.

Values after ≈ are worked out from the molar mass of the structure shown. Active and inactive are the calls of the source. The calls are words filed in the database; no cut-off is given here.

Consider `C[C@H](c1c[nH]c2ccccc12)[C@@H]1SC(N)=NC1=O`, for which the MIC in [1] turned out to be 20 µg/mL (≈ 77.1 µM); in series [3], 20 µg/mL (≈ 77.1 µM); in series [4], 200 µg/mL (≈ 771 µM); in series [8] it was 200 µg/mL (≈ 771 µM); in series [9], 20 µg/mL (≈ 77.1 µM). Also, the zone of inhibition at 1000 µg/mL in series [2] and in [6] was 0 mm throughout. Further, the result in [5] was inactive. Further, in [7], the PDD50 is 50 µg/mL. In addition, the MCC in [10] was determined as 100 µg/mL.
Take `CNC1=NC(=O)[C@@H]([C@@H](C)c2c[nH]c3ccccc23)S1`: the result in series [11], in series [13], in [14], in series [15], in series [5] and in [16] was inactive. Besides, the result in series [17], in series [19] and in series [20] was inactive. Moreover, the Activity result in series [12] and in series [18] was “Non-toxic” throughout.
With `CNC1=NC(=O)[C@H]([C@H](C)c2c[nH]c3ccccc23)S1`, in [5], the result was inactive.
For `NC1=NC(=O)C(Cc2c[nH]c3ccccc23)S1` (racemic), the minimum inhibitory concentration (MIC) is 200 µg/mL (≈ 815 µM) in [21]; 200 µg/mL (≈ 815 µM) in series [1]; 200 µg/mL (≈ 815 µM) in [3]; over 200 µg/mL in [4]; over 200 µg/mL in [8]; 200 µg/mL (≈ 815 µM) in series [9]. The zone of inhibition at 1000 µg/mL in series [2] and in [6] was 0 mm throughout. For the same compound, the result in series [5] was inactive.
On to `CN(C)C1=NC(=O)C(Cc2c[nH]c3ccccc23)S1` (racemic), for which the result in [11], in [13], in series [14], in [15], in series [5] and in series [16] was inactive. The outcome in series [17], in series [19] and in [20] was inactive. Besides, the Activity entry in series [12] and in series [18] was “Non-toxic” in each case.
With `CCNC1=NC(=O)C(Cc2c[nH]c3ccccc23)S1` (racemic), the result in [11], in series [13], in series [14], in [15], in [5] and in series [16] was inactive. Besides, the outcome in series [17], in [19] and in series [20] was inactive. The Activity result in series [12] and in [18] was “Non-toxic” in each case.
Regarding `O=C1N=C(NCCO)SC1Cc1c[nH]c2ccccc12` (racemic), the result in series [11], in [13], in series [14], in series [15], in series [5] and in series [16] was inactive. Moreover, the result in series [17], in series [19] and in series [20] was inactive. Moreover, the Activity result in [12] and in series [18] was “Non-toxic” each time.
As for `O=C1N=C(NCc2ccccc2)SC1Cc1c[nH]c2ccccc12` (racemic), the outcome in series [11], in series [13], in series [14], in series [15], in series [5] and in series [16] was inactive. For the same compound, the result in [17], in [19] and in series [20] was inactive. Besides, the Activity result in series [12] and in series [18] was “Non-toxic” in each case.
As to `CNC1=NC(=O)C(Cc2cn(C)c3ccccc23)S1` (racemic), the result in series [11], in series [13], in [14], in series [15], in [5] and in series [16] was inactive. Also, the result in series [17], in [19] and in [20] was inactive. The Activity result in series [12] and in [18] was “Non-toxic” throughout.
For `CN1C(=N)SC(Cc2c[nH]c3ccccc23)C1=O` (racemic), the result in series [11], in series [13], in series [14], in series [15], in series [5] and in series [16] was inactive. For the same compound, the outcome in series [17], in [19] and in series [20] was inactive. Also, the Activity result in series [12] and in [18] was “Non-toxic” each time.
In the case of `C/N=C1/SC(Cc2c[nH]c3ccccc23)C(=O)N1C` (racemic), the outcome in series [11], in [13], in series [14], in series [15], in [5] and in series [16] was inactive. In addition, the outcome in [17], in series [19] and in series [20] was inactive. The Activity result in series [12] and in [18] was “Non-toxic” throughout.
Turning to `CCN1C(=N)SC(Cc2c[nH]c3ccccc23)C1=O` (racemic), the outcome in series [11], in [13], in [14], in [15], in [5] and in series [16] was inactive. In addition, the outcome in [17], in [19] and in series [20] was inactive. The Activity result in [12] and in [18] was “Non-toxic” throughout.
In the case of `O=C1N/C(=N\c2ccccc2)SC1Cc1c[nH]c2ccccc12` (racemic), the result in [11], in series [13], in series [14], in series [15], in series [5] and in [16] was inactive. Besides, the result in series [17], in series [19] and in series [20] was inactive. Also, the Activity result in [12] and in series [18] was “Non-toxic” in each case.
Turning to `O=C1NC(=S)SC1Cc1c[nH]c2ccccc12` (racemic), the result in [11], in series [13], in series [14], in [15], in series [5] and in series [16] was inactive. Moreover, the result in series [17], in series [19] and in series [20] was inactive. Moreover, the Activity entry in series [12] and in series [18] was “Non-toxic” in each case.
In the case of `C[C@H](c1c[nH]c2ccccc12)[C@@H]1SC(N(C)C)=NC1=O` (racemic), the MIC in series [21] was 20 µg/mL (≈ 69.6 µM); in series [1], over 200 µg/mL; in series [3], 20 µg/mL (≈ 69.6 µM); in series [4], over 200 µg/mL; in [8], over 200 µg/mL; in [9], 20 µg/mL (≈ 69.6 µM). Also, the zone of inhibition at 1000 µg/mL in [2] and in series [6] was 0 mm throughout. For the same compound, the outcome in [5] was inactive.
Take `C[C@H](c1c[nH]c2ccccc12)[C@@H]1SC(NCCN(C)C)=NC1=O.Cl` (racemic): the result in [11], in series [13], in series [14], in series [15], in [5] and in [16] was inactive. Further, the result in series [17], in series [19] and in series [20] was inactive. Moreover, the Activity result in series [12] and in series [18] was “Non-toxic” in each case.
On to `CNC1=NC(=O)[C@H]([C@H](C)c2c[nH]c3ccccc23)S1` (racemic), for which the result in [5] was inactive.
Take `CC1(C)S[C@@H]2[C@H](NC(=O)[C@H](N)c3ccccc3)C(=O)N2[C@H]1C(=O)O` [AMPICILLIN]: the minimum inhibitory concentration (MIC) came to 2 µg/mL (≈ 5.72 µM) in series [21]; 2 µg/mL (≈ 5.72 µM) in series [1]; 2 µg/mL (≈ 5.72 µM) in series [3]; 2 µg/mL (≈ 5.72 µM) in series [4]; 2 µg/mL (≈ 5.72 µM) in [8]; 20 µg/mL (≈ 57.2 µM) in series [9].
